Experiments:
[1] = biological target: T1, acetylcholinesterase (AChE, TcAChE) (Tetronarce californica, UniProt P04058); assay: Ellman colorimetric assay with commercial enzyme, […] nm; assay type: biochemical
[2] = biological target: T1, acetylcholinesterase (AChE, TcAChE); assay: Ellman colorimetric assay with commercial enzyme, […] nm (positive control); assay type: biochemical

T1 sequence (P04058 22-564): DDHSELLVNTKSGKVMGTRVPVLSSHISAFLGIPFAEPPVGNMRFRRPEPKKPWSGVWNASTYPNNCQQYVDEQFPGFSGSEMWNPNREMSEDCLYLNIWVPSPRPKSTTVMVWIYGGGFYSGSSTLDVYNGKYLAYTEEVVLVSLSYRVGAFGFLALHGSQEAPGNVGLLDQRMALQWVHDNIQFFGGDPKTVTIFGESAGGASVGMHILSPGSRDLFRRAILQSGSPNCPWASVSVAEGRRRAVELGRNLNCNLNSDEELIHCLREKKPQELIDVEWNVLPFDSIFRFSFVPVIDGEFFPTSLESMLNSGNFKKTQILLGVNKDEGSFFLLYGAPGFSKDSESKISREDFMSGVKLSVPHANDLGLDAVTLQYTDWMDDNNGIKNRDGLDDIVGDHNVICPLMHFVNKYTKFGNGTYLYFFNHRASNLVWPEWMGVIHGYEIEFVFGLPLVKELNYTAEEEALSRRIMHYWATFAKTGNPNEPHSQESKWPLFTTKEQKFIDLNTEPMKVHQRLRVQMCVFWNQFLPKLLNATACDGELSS

| SMILES | IC50 [1] [µM] | IC50 [2] [µM] |
| --- | --- | --- |
| CN(CCCCNC(=O)/C=C/c1ccccc1)CCCNC(=O)/C=C/c1ccccc1 [compound 1, 5-N-methylmaytenine] | 19.6 |  |
| COC1=CC2CCNC3CC4(C=CC(=O)C=C4)C(=C1OC)C23 (stereo not drawn) [compound 2, stepharine] | 61.2 |  |
| CN(C)C(=O)Oc1cccc([N+](C)(C)C)c1 [neostigmine] |  | 3.72 |
